Assays:
Format in all cases: in vivo
[1] = tested on: Maize weevil [Sitophilus zeamais (Motschulsky)]; test: Maize weevil on dipped corn seeds (MW), 48 hours; settings: percent in solution, adult weevils
Procedure: (§1) The compounds in Tables 1 and 2 above were tested for insecticidal activity using the following testing procedures. LC50 values, based on the results of these tests and calculated according to dosage-mortality curves, are expressed in Table 3.
Maize weevil [Sitophilus zeamais (Motschulsky)]:
Test compounds were diluted in a 50:50 acetone:water solution. Four corn seeds [Zea mays (L.)] which had been immersed in test solutions for 2-3 seconds and allowed to dry were placed in containers together with 10 adult weevils. The containers were covered and kept at a temperature of about 25° C. Mortality was recorded after 48 hours. Test concentrations ranged from 0.01% down to that at which 50% mortality occurred. The LC50 values are expressed below in Table 3 under the heading "MW" in terms of percent of the test compound in solution.

[2] = tested on: Housefly [Musca domestica]; test: Housefly contact mortality in dishes (HF), 48 hours; settings: μg of test compound per 25 female flies
Method in brief: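 Dry-film exposure of 25 female houseflies per cage, 48 h; LC50 as μg per 25 flies.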

[3] = tested on: Cabbage Looper [Trichoplusia ni (Hubner)]; test: Cabbage looper leaf dip (CL), 3-5 days; settings: percent in solution, second-instar larvae
Method in brief: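 LC50 values, given as percent test compound in solution, were calculated from dosage-mortality curves. Squash cotyledons were immersed 2-3 s in acetone-water (50-50) dilutions starting at 0.1%, dried on a screen, then infested with five second-instar larvae. Mortality was read 3-5 days on.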

[4] = tested on: Tobacco Budworm [Heliothis virescens (Fabricius)] eggs; test: Tobacco budworm eggs (TBW-E); settings: percent in solution; 2-day old eggs
Method in brief: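 2-day eggs on paper towel, acetone dip, 0.1% and below; petri dish with larval diet, 78° F. Mortality read after control hatch and larval feeding. LC50 = % compound in solution, from dose-mortality curve.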

[5] = tested on: Black Bean Aphid [Aphis fabae (Scop.)]; test: Black bean aphid spray test on nasturtium (BBA), 48 hours; settings: percent of test compound in sprayed solution
Procedure: as §1
Black Bean Aphid [Aphis fabae (Scop.)]:
Nasturtium plants (Tropaeolum sp.) approximately 5 cm tall, were transplanted into sandy loam soil in small cups and infested with 25-50 black bean aphids of mixed ages. Twenty-four hours later they were sprayed to the point of runoff with 50-50 acetone-water solutions of the test compounds. Treated plants were held in the greenhouse and mortality was recorded after 48 hours. Test concentrations ranged from 0.05% downward. The LC-50 value is expressed below in Table 3 under the heading "BBA" in terms of percent of the test compound in the sprayed solution.

| Structure (SMILES) | LC50 MW [1] | LC50 HF [2] | LC50 CL [3] | LC50 TBW E (eggs) [4] | LC50 BBA [5] |
| --- | --- | --- | --- | --- | --- |
| Fc1ccc(Oc2cccc(COC(=Nc3ccc(F)c(Cl)c3)C3CC3)c2)cc1 [Compound 116] | > 0.01% | 15 µg | 0.00025% | – | – |
| CCC(C)C(=Nc1ccc(F)c(Cl)c1)OCc1ccc(F)c(Oc2ccccc2)c1 (stereo not shown) [Compound 261] | – | 24 µg | 0.001% | 0.05% | 0.002% |
| Cc1ccc(Cl)cc1N=C(OCc1cccc(Oc2ccccc2)c1)C(C)C [Compound 263] | – | > 100 µg | 0.05% | > 0.1% | > 0.05% |
| COc1ccc(Cl)cc1N=C(OCc1cccc(Oc2ccccc2)c1)C(C)C [Compound 264] | – | > 100 µg | 0.03% | > 0.1% | > 0.05% |
| CC(C)C(=Nc1ccc(F)cc1)OCc1cccc(Oc2ccc(F)c(F)c2)c1 [Compound 265] | – | 10 µg | 0.00025% | 0.07% | > 0.05% |
| CC(C)C(=Nc1cccc(SC(F)(F)F)c1)OCc1cccc(Oc2ccc(F)cc2)c1 [Compound 272] | – | > 100 µg | 0.0024% | > 0.1% | > 0.05% |
| CC(C)C(=Nc1ccc2c(c1)OCO2)OCc1cc(Oc2ccc(F)cc2)ccc1Cl [Compound 274] | – | > 100 µg | 0.1% | > 0.1% | > 0.05% |
| CC(C)C(=Nc1cc(F)c(Cl)cc1Cl)OCc1ccc(F)c(Oc2ccc(F)cc2)c1 [Compound 292] | > 0.01% | 41 µg | 0.00075% | 0.05% | – |
| Fc1ccc(Oc2cccc(COC(=Nc3cccc(C(F)(F)F)c3)C3CC3)c2)cc1 [Compound 294] | > 0.01% | > 100 µg | 0.017% | > 0.1% | – |
| CC(C)C(=Nc1ccc(F)c(Br)c1)OCc1ccc(F)c(Oc2ccccc2)c1 [Compound 299] | > 0.01% | 8 µg | 0.0005% | 0.017% | – |
| CC(C)C(=Nc1ccc(C(C)(C)C)cc1)OCc1ccc(F)c(Oc2ccc(Cl)cc2)c1 [Compound 301] | > 0.01% | > 100 µg | 0.008% | > 0.1% | – |
| CC(C)C(=Nc1cccc([N+](=O)[O-])c1)OCc1cccc(Oc2ccccc2)c1 [Compound 302] | > 0.01% | 15 µg | 0.003% | > 0.1% | – |
| CC(C)C(=Nc1c(F)c(F)cc(F)c1F)OCc1cccc(Oc2ccc(F)cc2)c1 [Compound 304] | > 0.01% | > 100 µg | 0.0024% | > 0.1% | – |
| CC(Br)C(=Nc1ccc2c(c1)OCO2)OCc1cccc(Oc2ccccc2)c1 (stereo not shown) [Compound 306] | > 0.01% | > 100 µg | 0.005% | 0.1% | – |
| CC(C)C(=Nc1ccc([N+](=O)[O-])c(C(F)(F)F)c1)OCc1cccc(Oc2ccccc2)c1 [Compound 307] | > 0.01% | > 100 µg | 0.002% | 0.08% | – |
| CC(C)C(=Nc1ccc(F)c(Cl)c1)OCc1cc(F)cc(Oc2ccc(F)cc2)c1 [Compound 327] | – | > 100 µg | 0.005% | > 0.1% | > 0.05% |
| CC(C)CC(=Nc1ccc(C(C)C)cc1)OCc1cccc(Oc2ccc(F)cc2)c1 [Compound 329] | – | 7 µg | 0.033% | > 0.1% | > 0.05% |
| Fc1ccc(COC(=Nc2ccc(C(F)(F)F)cc2)C2CC2)cc1Oc1ccccc1 [Compound 443] | < 0.01% | < 100 µg | 0.00015% | – | 0.0003% |
| Fc1ccc(COC(=Nc2ccc(C(F)(F)F)cc2)C2CC2)cc1Oc1ccc(Cl)cc1 [Compound 444] | > 0.01% | > 100 µg | 0.00015% | – | 0.0006% |

| Structure (SMILES) | LC50 MW [1] | LC50 HF [2] | LC50 CL [3] | LC50 TBW E (eggs) [4] | LC50 BBA [5] |
| --- | --- | --- | --- | --- | --- |
| CC(C)C(=Nc1ccc(F)c(Cl)c1)OCc1cccc(Oc2ccc(I)cc2)c1 [Compound 447] | – | 33 µg | 0.0009% | > 0.1% | > 0.05% |
| CC(C)C(=Nc1ccc(F)c(Cl)c1)OCc1ccc(Cl)c(Oc2ccc(F)cc2)c1 [Compound 448] | – | 16 µg | 0.003% | 0.03% | > 0.05% |
| CC(C)C(=Nc1ccc(F)c(I)c1)OCc1cccc(Oc2ccc(F)cc2)c1 [Compound 449] | 0.0075% | 13 µg | 0.0001% | 0.025% | – |
| Fc1c(F)c(F)c(COC(=Nc2cccc(Cl)c2Cl)C(Cl)Cl)c(F)c1F [Compound 454] | – | > 100 µg | 0.03% | > 0.1% | > 0.05% |
| Cc1c(COC(=Nc2ccc(Cl)cc2)C(C)C)cccc1-c1ccccc1 [Compound 455] | – | > 100 µg | 0.0025% | > 0.1% | 0.01% |
| Cc1c(COC(=Nc2ccc(F)cc2)C(C)C)cccc1-c1ccccc1 [Compound 458] | – | 100 µg | 0.007% | > 0.05% | > 0.05% |
| CC(C)C(=Nc1ccc2c(c1)OC(C)(C)O2)OCc1cccc(Oc2ccc(Cl)cc2)n1 [Compound 468] | – | 50 µg | > 0.1% | > 0.1% | 0.05% |
| CC(C)C(=Nc1cccc(C(F)(F)F)c1)OCc1cccc(Oc2ccncc2)c1 [Compound 469] | – | 40 µg | 0.02% | > 0.1% | > 0.05% |
| CC(C)C(=Nc1ccc(F)c(Cl)c1)OCc1cccc(Oc2ccncc2)c1 [Compound 470] | – | 25 µg | 0.02% | > 0.1% | > 0.05% |
| CC(C)C(=Nc1cccc(C(F)(F)F)c1)OCc1cccc(Oc2ccc(Cl)cc2)n1 [Compound 477] | 0.0076% | 20 µg | 0.0003% | > 0.1% | – |
| CC(C)C(=Nc1ccc(Br)cc1)OCc1coc(Cc2ccccc2)c1 [Compound 478] | > 0.01% | 15 µg | 0.0037% | > 0.1% | – |
| C=CCOc1cccc(COC(=Nc2cccc(C(F)(F)F)c2)C(C)C)c1 [Compound 480] | – | > 100 µg | 0.01% | > 0.1% | > 0.05% |
| CC(C)C(=Nc1cccc(C(F)(F)F)c1)OCc1coc(Cc2ccccc2)c1 [Compound 482] | > 0.01% | 36 µg | 0.01% | > 0.1% | – |
| CC(C)C(=Nc1ccc2c(c1)OCO2)OCc1coc(Cc2ccccc2)c1 [Compound 483] | > 0.01% | 6 µg | 0.001% | 0.05% | – |
| CC(C)C(=Nc1ccc(F)cc1F)OCc1coc(Cc2ccccc2)c1 [Compound 486] | > 0.01% | 15 µg | > 0.1% | > 0.1% | – |
| CC(C)C(=Nc1ccc(F)c(Cl)c1)OC(C)c1cccc(Oc2ccccc2)n1 (stereo not shown) [Compound 498] | – | 49 µg | 0.002% | > 0.1% | > 0.05% |
| CC(C)C(=Nc1cccc(C(F)(F)F)c1)OC(C)c1cccc(Oc2ccccc2)n1 (stereo not shown) [Compound 499] | – | 63 µg | 0.0024% | > 0.1% | > 0.05% |
| COCc1c(F)c(F)c(COC(=Nc2ccc3c(c2)OCO3)C(C)C)c(F)c1F [Compound 501] | – | 20 µg | 0.00045% | > 0.1% | > 0.05% |
| CC(C)C(=Nc1cccc(C(F)(F)F)c1)OCc1ccnc(Oc2ccc(F)cc2)c1 [Compound 508] | > 0.01% | > 100 µg | 0.013% | > 0.1% | – |

From patent publication US5045566A, “Novel imidate insecticides” (ICI Americas Inc., priority 1989, dated 1991)
